According to the supplement of paper PMC11061612:

Tests used:
Experiment in all cases: combination Emax (second highest fraction inhibited in the dose matrix, 72 h); higher = more inhibition; extreme values may be limits of the assay
[1] = system: SW780 (Bladder Carcinoma)
In short: (§1)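 Bliss excess equals the observed combination effect minus the expected value EA + EB − EA·EB, where EA and EB are the effects of each agent alone. Combination Emax is the second-highest inhibition within the matrix. Inhibition was scaled from CellTiter-Glo 2.0 luminescence, with 0 set by vehicle wells and 1 by blank wells, after 72 hours of two-drug dosing of cells plated in 1536-well plates.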

[2] = system: KATOIII (Gastric Carcinoma)
In short: as §1

[3] = system: SW1783 (Low Grade Glioma)
In short: as §1

[4] = system: KARPAS-1106P (B-Cell Non-Hodgkin's Lymphoma)
In short: as §1

[5] = system: 697 (B-Lymphoblastic Leukemia)
In short: as §1

[6] = system: SW756 (Cervical Carcinoma)
In short: as §1

[7] = system: LS-513 (Colorectal Carcinoma)
In short: as §1

[8] = system: C3A (Hepatocellular Carcinoma)
In short: as §1

[9] = system: SW1990 (Pancreatic Carcinoma)
In short: as §1

[10] = system: DOV13 (Ovarian Carcinoma)
In short: as §1

[11] = system: SW1088 (Low Grade Glioma)
In short: as §1

SN12C (Kidney Carcinoma) = system: SN12C (Kidney Carcinoma)
In short: as §1

[12] = system: TE-5 (Esophageal Squamous Cell Carcinoma)
In short: as §1

[13] = system: NCI-H1299 (Non-Small Cell Lung Carcinoma)
In short: as §1

[14] = system: MDA-MB-157 (Breast Carcinoma)
In short: as §1

[15] = system: JiyoyeP-2003 (Burkitt's Lymphoma)
In short: as §1

SK-N-FI (Neuroblastoma) = system: SK-N-FI (Neuroblastoma)
In short: as §1

[16] = system: MFH-ino (Other Solid Carcinomas)
In short: as §1

[17] = system: NCI-H1793 (Lung Adenocarcinoma)
In short: as §1

[18] = system: NCI-H1694 (Small Cell Lung Carcinoma)
In short: as §1

CC(=O)Nc1cccc(-n2c(=O)n(C3CC3)c(=O)c3c(Nc4ccc(I)cc4F)n(C)c(=O)c(C)c32)c1 [Trametinib] + Cc1nc(-c2cn3c(n2)-c2ccc(-c4cnn(C(C)(C)C(N)=O)c4)cc2OCC3)n(C(C)C)n1 [Taselisib] (first compound max 1 µM, 7x7, partner max 10 µM)
combination Emax [1]: 0.541
combination Emax [2]: 0.793
combination Emax [3]: 0.7
combination Emax [4]: 0.749
combination Emax [5]: 0.653
combination Emax [6]: 0.626
combination Emax [7]: 1
combination Emax [8]: 0.903
combination Emax [9]: 0.971
combination Emax [10]: 0.76
combination Emax [11]: 0.696
combination Emax (SN12C (Kidney Carcinoma)): 0.45
combination Emax [12]: 0.767
combination Emax [13]: 0.68
combination Emax [14]: 0.336
combination Emax [15]: 0.544
combination Emax (SK-N-FI (Neuroblastoma)): 0.954
combination Emax [16]: 0.583
combination Emax [17]: 0.778
combination Emax [18]: 0.324

CC1(C)CCC(CN2CCN(c3ccc(C(=O)NS(=O)(=O)c4ccc(NCC5CCOCC5)c([N+](=O)[O-])c4)c(Oc4cnc5[nH]ccc5c4)c3)CC2)=C(c2ccc(Cl)cc2)C1 [Venetoclax] + C1CN(CCC1(C(=O)N[C@@H](CCO)C2=CC=C(C=C2)Cl)N)C3=NC=NC4=C3C=CN4 [Capivasertib] (first compound max 1 µM, 7x7, partner max 3 µM)
combination Emax [1]: 0.163
combination Emax [2]: 0.254
combination Emax [3]: 0.342
combination Emax [4]: 0.492
combination Emax [5]: 0.988
combination Emax [6]: 0.195
combination Emax [7]: 0.335
combination Emax [8]: 0.17
combination Emax [9]: 0.576
combination Emax [10]: 0.353
combination Emax [11]: 0.494
combination Emax (SN12C (Kidney Carcinoma)): 0.206
combination Emax [12]: 0.255
combination Emax [13]: 0.171
combination Emax [14]: 0.535
combination Emax [15]: 0.591
combination Emax (SK-N-FI (Neuroblastoma)): 0.302
combination Emax [16]: 0.258
combination Emax [17]: 0.221
combination Emax [18]: 0.179

CC1(C)CCC(CN2CCN(c3ccc(C(=O)NS(=O)(=O)c4ccc(NCC5CCOCC5)c([N+](=O)[O-])c4)c(Oc4cnc5[nH]ccc5c4)c3)CC2)=C(c2ccc(Cl)cc2)C1 [Venetoclax] + C=CCn1c(=O)c2cnc(Nc3ccc(N4CCN(C)CC4)cc3)nc2n1-c1cccc(C(C)(C)O)n1 [AZD1775] (first compound max 1 µM, partner max 1 µM)
combination Emax [1]: 0.148
combination Emax [2]: 0.382
combination Emax [3]: 0.307
combination Emax [4]: 0.917
combination Emax [5]: 1
combination Emax [6]: 0.436
combination Emax [7]: 0.697
combination Emax [8]: 0.572
combination Emax [9]: 0.783
combination Emax [10]: 0.912
combination Emax [11]: 0.648
combination Emax (SN12C (Kidney Carcinoma)): 0.381
combination Emax [12]: 0.451
combination Emax [13]: 0.641
combination Emax [14]: 0.905
combination Emax [15]: 0.954
combination Emax (SK-N-FI (Neuroblastoma)): 0.713
combination Emax [16]: 0.184
combination Emax [17]: 0.481
combination Emax [18]: 0.516

CC1(C)CCC(CN2CCN(c3ccc(C(=O)NS(=O)(=O)c4ccc(NCC5CCOCC5)c([N+](=O)[O-])c4)c(Oc4cnc5[nH]ccc5c4)c3)CC2)=C(c2ccc(Cl)cc2)C1 [Venetoclax] + CCN(CCO)CCCOc1ccc2c(Nc3cc(CC(=O)Nc4cccc(F)c4)[nH]n3)ncnc2c1 [AZD2811] (first compound max 1 µM, 7x7, partner max 1 µM)
combination Emax [1]: 0.193
combination Emax [2]: 0.17
combination Emax [3]: 0.333
combination Emax [4]: 0.46
combination Emax [5]: 1
combination Emax [6]: 0.158
combination Emax [7]: 0.399
combination Emax [8]: 0.228
combination Emax [9]: 0.625
combination Emax [10]: 0.523
combination Emax [11]: 0.474
combination Emax (SN12C (Kidney Carcinoma)): 0.187
combination Emax [12]: 0.29
combination Emax [13]: 0.19
combination Emax [14]: 0.56
combination Emax [15]: 0.382
combination Emax (SK-N-FI (Neuroblastoma)): 0.198
combination Emax [16]: 0.191
combination Emax [17]: 0.234
combination Emax [18]: 0.485

CC1(C)CCC(CN2CCN(c3ccc(C(=O)NS(=O)(=O)c4ccc(NCC5CCOCC5)c([N+](=O)[O-])c4)c(Oc4cnc5[nH]ccc5c4)c3)CC2)=C(c2ccc(Cl)cc2)C1 [Venetoclax] + CN(C)CCCOc1ccc(-c2ccc3ncc4c(c3c2)n(C2CCOCC2)c(=O)n4C)cn1 [AZD0156] (first compound max 1 µM, 7x7, partner max 1 µM)
combination Emax [1]: 0.212
combination Emax [2]: 0.154
combination Emax [3]: 0.24
combination Emax [4]: 0.552
combination Emax [5]: 0.988
combination Emax [6]: 0.158
combination Emax [7]: 0.316
combination Emax [8]: 0.17
combination Emax [9]: 0.674
combination Emax [10]: 0.326
combination Emax [11]: 0.238
combination Emax (SN12C (Kidney Carcinoma)): 0.249
combination Emax [12]: 0.271
combination Emax [13]: 0.214
combination Emax [14]: 0.596
combination Emax [15]: 0.189
combination Emax (SK-N-FI (Neuroblastoma)): 0.217
combination Emax [16]: 0.171
combination Emax [17]: 0.248
combination Emax [18]: 0.14

CC1(C)CCC(CN2CCN(c3ccc(C(=O)NS(=O)(=O)c4ccc(NCC5CCOCC5)c([N+](=O)[O-])c4)c(Oc4cnc5[nH]ccc5c4)c3)CC2)=C(c2ccc(Cl)cc2)C1 [Venetoclax] + COc1cc(Nc2ncc3c(n2)-c2ccc(Cl)cc2C(c2c(F)cccc2OC)=NC3)ccc1C(=O)O [Alisertib] (first compound max 1 µM, 7x7, partner max 10 µM)
combination Emax [1]: 0.534
combination Emax [2]: 0.681
combination Emax [3]: 0.634
combination Emax [4]: 0.713
combination Emax [5]: 1
combination Emax [6]: 0.273
combination Emax [7]: 0.55
combination Emax [8]: 0.302
combination Emax [9]: 0.415
combination Emax [10]: 0.693
combination Emax [11]: 0.679
combination Emax (SN12C (Kidney Carcinoma)): 0.318
combination Emax [12]: 0.137
combination Emax [13]: 0.385
combination Emax [14]: 0.649
combination Emax [15]: 0.852
combination Emax (SK-N-FI (Neuroblastoma)): 0.666
combination Emax [16]: 0.318
combination Emax [17]: 0.612
combination Emax [18]: 0.667
